In US7049331B2, “1,2,4-thiadiazole derivatives as melanocortin receptor modulators” (Ortho-McNeil Pharmaceutical, Inc., priority 2001, dated 2006):

What was measured:
[1] = tested on: Hippocampal Cells; test: Neurite Cell Outgrowth Assay, hippocampal cells; format: cell-based; conditions: Rattus norvegicus; 50 nM; percent change over the vehicle response; NA = no change/not active
Summary of the method: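 Rat E18 hippocampal or cortical neurons plated at 30,000 cells/well, treated 24 h after plating with compound at 50 nM, refreshed on day 3. At one week, fixed and MAP-2 immunostained with FITC secondary, read by fluorescence; outgrowth given as percent change versus vehicle.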

[2] = tested on: human sebocytes; test: cells; format: cell-based; conditions: read-out: % Inh Unknown lipid synthesis
[3] = tested on: human skin transplanted to the SCID mouse; test: Sebum production: Human Skin-SCID Mouse Chimera Model; format: in vivo; conditions: for % Inh Squalene (Human Sebaceous Lipids) / % Inh Triglycerides (Human Sebaceous Lipids) / % Inh W/E (Human Sebaceous Lipids): 11 Day Treatment; for % Inh Cholesterol Ester, Lipid Accumulation / % Inh Cholesterol, Lipid Accumulation / % Inh Cholesterol, Sebaceous Lipid Synthesis / % Inh Squaline, Lipid Accumulation / % Inh Squaline, Sebaceous Lipid Synthesis / % Inh Triglycerides, Lipid Accumulation / % Inh Triglycerides, Sebaceous Lipid Synthesis / % Inh Wax Esters, Lipid Accumulation / % Inh Wax Esters, Sebaceous Lipid Synthesis: 30 Day Treatment
From the text: C.B-17 scid/scid mice (Taconic, Germantown, N.Y.) were used for grafting at 5–6 weeks of age. Full thickness human facial skin was shaved to ˜0.4 mm using a Forman Dermatome. The skin shavings were washed 3 times in antibiotics and antimycotics (penicillin, streptomycin, fungizone) (Life technologies) in Dulbecco's Modified Eagle Medium (DMEM, Life Technologies). Eliptical skin ˜2.0–2.5×1.0–1.5 was grafted onto the prepared graft bed and sutured using 4.0 silk. During surgical procedures the mice were anaesthetized using a mixture of Ketaset (0.16 mg/g body weight) and Rompun (8.0 μg/g body weight).
It is well accepted that the wound healing process of the transplanted skin in the SCID mouse takes one month, at which time the human skin can be used for experimental purposes. […] Maximum size of the glands was observed 3 month post transplantation. The glands retained their capability to produce human specific sebum and the glandular tissue expressed human specific markers including MC5-R. Since glands reached their maximum size at 2–3 month post transplantation the effects of inhibitors of sebum secretion was tested at this point.
Mice at 2–3 month post transplantation with human facial skin were used for the studies. The graft area was treated with the test compound at the desired concentration(s) dissolved in polyethylene glycol-ethanol (20 μl/2 cm^2). Controls were treated with vehicle alone. The test compounds were applied daily, excluding weekends. Sebum secretion was determined using Sebutape at 15 days and 30 days following treatment.
The termination of the experiment was determined by preliminary clinical evaluation of sebum production using SEBUTAPE. At this time human skin grafts were excised and representative samples were collected for histological evaluation. More particularly, 2 mm punch biopsies were prepared and used for evaluation of lipid synthesis and total lipid accumulation in the treated tissues.
The collected—2 mm punch biopsies were placed individually into 96 well plates in Krebs buffer and labeled with 10 μCi of ^14C acetate for 3 hours. Following this labeling period the samples were washed in medium and 5 biopsies pooled, weighed, and used for lipid extraction. The lipid extraction and analysis by HPTLC was the same as described for tissue culture derived cells. […]

[4] = biological target: T1, melanocortin MC-4 receptor (Homo sapiens, UniProt P32245); test: MC-4 receptor binding (Filtration); conditions: cell prints its own unit nm in the Filtration (μM) column; read-out: IC50 MC-4 (Filtration)
T1 construct: purchased Receptor Biology Inc
Procedure: The procedures described above for the melanocortin MC-4 receptor were repeated for the melanocortin MC-3 receptor. Following the procedures described, representative compounds of the present invention were tested for binding in the MC-4 and/or MC-3 assay, as listed in Table 4.

[5] = 30 days of topical treatment with 0.05% and 0.01% solution

T1 sequence (P32245 whole entry): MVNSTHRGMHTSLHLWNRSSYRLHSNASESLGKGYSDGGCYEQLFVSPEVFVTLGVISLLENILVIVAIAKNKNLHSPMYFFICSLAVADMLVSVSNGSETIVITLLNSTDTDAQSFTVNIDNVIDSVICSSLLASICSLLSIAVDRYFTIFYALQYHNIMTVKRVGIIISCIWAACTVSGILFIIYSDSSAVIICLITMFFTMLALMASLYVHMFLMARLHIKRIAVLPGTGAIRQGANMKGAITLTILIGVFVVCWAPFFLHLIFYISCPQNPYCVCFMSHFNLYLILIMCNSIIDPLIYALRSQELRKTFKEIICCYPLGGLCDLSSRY

COc1ccc(N(C)c2nc(-c3ccccc3)[n+](-c3ccc(C)cc3)s2)cc1 [Compound 50]
activation at 0.05 µM [1]: 46%

COc1ccccc1-c1nc(Nc2ccccc2)s[n+]1-c1ccccc1OC.[Br-] [Compound 74, 2-(2-methoxyphenyl)-3-(2-methoxyphenyl)-5-phenylamino-[1,2.4]thiadiazol-2-ium]
inhibition at 0.4 µM [2]: 75% | inhibition at 0.6 µM [2]: 80% | % Inh Squalene (Human Sebaceous Lipids) ([3]; 0.01% topical): 0% | % Inh Triglycerides (Human Sebaceous Lipids) ([3]; 0.01% topical): 0% | % Inh W/E (Human Sebaceous Lipids) ([3]; 0.01% topical): 25% | % Inh Cholesterol Ester, Lipid Accumulation ([3]; 0.01% topical): 44% | % Inh Cholesterol, Lipid Accumulation ([3]; 0.01% topical): 33% | % Inh Cholesterol, Sebaceous Lipid Synthesis ([3]; 0.01% topical): 33% | % Inh Squaline, Lipid Accumulation ([3]; 0.01% topical): 82% | % Inh Squaline, Sebaceous Lipid Synthesis ([3]; 0.01% topical): 80% | % Inh Triglycerides, Lipid Accumulation ([3]; 0.01% topical): 75% | % Inh Triglycerides, Sebaceous Lipid Synthesis ([3]; 0.01% topical): 75% | % Inh Wax Esters, Lipid Accumulation ([3]; 0.01% topical): 86% | % Inh Wax Esters, Sebaceous Lipid Synthesis ([3]; 0.01% topical): 86% | % Inh Cholesterol Ester, Lipid Accumulation ([3]; 0.05% topical): 21% | % Inh Cholesterol, Lipid Accumulation ([3]; 0.05% topical): 82% | % Inh Cholesterol, Sebaceous Lipid Synthesis ([3]; 0.05% topical): 82% | % Inh Squaline, Lipid Accumulation ([3]; 0.05% topical): 73% | % Inh Squaline, Sebaceous Lipid Synthesis ([3]; 0.05% topical): 90% | % Inh Triglycerides, Lipid Accumulation ([3]; 0.05% topical): 90% | % Inh Triglycerides, Sebaceous Lipid Synthesis ([3]; 0.05% topical): 90% | % Inh Wax Esters, Lipid Accumulation ([3]; 0.05% topical): 93% | % Inh Wax Esters, Sebaceous Lipid Synthesis ([3]; 0.05% topical): 93% | % Inh Squalene (Human Sebaceous Lipids) ([3]; 0.1% topical): 70% | % Inh Triglycerides (Human Sebaceous Lipids) ([3]; 0.1% topical): 50% | % Inh W/E (Human Sebaceous Lipids) ([3]; 0.1% topical): 80% | % Inh Squalene (Human Sebaceous Lipids) ([3]; 0.5% topical): 0% | % Inh Triglycerides (Human Sebaceous Lipids) ([3]; 0.5% topical): 0% | % Inh W/E (Human Sebaceous Lipids) ([3]; 0.5% topical): 10% | de novo synthesis of sebaceous lipids [3, 5]: significantly decreased | total sebaceous lipid accumulation [3, 5]: significantly decreased | down regulation of sebaceous lipids ([3]; topical treatment for 15 days with 0.05% and 0.005% solutions): not sufficient to down regulate the lipids | Visual evaluation of the sebaceous gland ([3]; topical treatment with 0.1% solution): visible shrinkage of the sebaceous gland and down regulation of sebaceous lipids

c1ccc(CNc2nc(-c3ccccc3)[n+](-c3ccccc3)s2)cc1 [Compound 84]
IC50 [4]: 0.082 µM
